Results: patent US12459951B2, “Compounds that interact with RAS superfamily proteins for treatment of cancers, inflammatory diseases, rasopathies, and fibrotic disease” (SHY Therapeutics, LLC, priority 2022, dated 2025)

Columns and labels:
Erk1/2 phosphorylation = assay: Erk1/2 Phosphorylation Assay (western blot), Panc-1; type: cell-based, human; details: at 10 μM, * = activation
How it was run: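 KRas G12D Panc-1 cells were treated 6 h at 37° C with compound at 10 μM or serial dilutions for IC50 (0.3% DMSO). In method 1, cells were serum-starved overnight (0.5% FBS) and then given 1.5 ng/ml EGF for 15 min. In method 2, cells stayed in 10% FBS without stimulation. Lysate phospho-Erk1/2 (Thr202/Tyr204) was read by western blot.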

[1] = tested on: Smad2/Smad3 phosphorylation; assay: Phospho-Smad2/3 Inhibition Assay (western blot), Panc-1; type: cell-based, human; details: at 10 μM, Panc-1 pancreatic cancer cell line; starred symbols = activation
How it was run: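 Panc-1 cells (KRas G12D), starved overnight in 0.5% FBS, treated 3 h at 37° C with compound at 10 μM final (0.3% DMSO) or serial dilutions for IC50, then stimulated with 10 ng/ml TGF-b1 for 1 h. Phospho-Smad2 (Ser465/467) and phospho-Smad3 (Ser423/425) detected by western blot.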

CO[C@H]1CC[C@@H](Nc2nc(-c3ccccn3)nn3cc(-c4ccn(C(C)C)n4)c(-c4ccccc4)c23)C1 (racemic) [Compound 24, rac 6-(1-Isopropyl-1H-pyrazol-3-yl)-N-((1R,3S)-3-methoxycyclopentyl)-5-phenyl-2-(pyridin-2-yl)pyrrolo[2,1-f][1,2,4]triazin-4-amine] was tested. Which “% inh of Erk1/2 phosphorylation in Panc-1” value (Erk1/2 phosphorylation) did it give?
The value was 0 (0% inhibition).

What about the “% inh of Smad2/3 phosphorylation in Panc-1” value [1] of the same compound?
Its value is “B (B = 26-45% inhibition)”.

How did the “% inh of Erk1/2 phosphorylation in Panc-1” value (Erk1/2 phosphorylation) turn out when COCC1CCN(c2nc(-c3ccccn3)nn3cc(-c4ccn(C(C)C)n4)c(-c4ccccc4)c23)C1 (racemic) [Compound 25, rac 6-(1-Isopropyl-1H-pyrazol-3-yl)-4-(3-(methoxymethyl)pyrrolidin-1-yl)-5-phenyl-2-(pyridin-2-yl)pyrrolo[2,1-f][1,2,4]triazine] was run?
The value was 0 (0% inhibition).

What about the “% inh of Smad2/3 phosphorylation in Panc-1” value [1] of the same compound?
Its value is 0 (0 = 0% inhibition).

Which “% inh of Erk1/2 phosphorylation in Panc-1” value (Erk1/2 phosphorylation) does the source give for COC[C@@H]1CC[C@@H]1CNc1nc(-c2ccccn2)nn2cc(-c3ccn(C(C)C)n3)c(-c3ccccc3)c12 (racemic) [Compound 26, rac 6-(1-Isopropyl-1H-pyrazol-3-yl)-N-(((1S,2R)-2-(methoxymethyl)cyclobutyl)methyl)-5-phenyl-2-(pyridin-2-yl)pyrrolo[2,1-f][1,2,4]triazin-4-amine] here?
The value was “D (85-100% inhibition)”.

And the “% inh of Smad2/3 phosphorylation in Panc-1” value [1]?
Its value is “C (C = 46-75% inhibition)”.

How did the “% inh of Erk1/2 phosphorylation in Panc-1” value (Erk1/2 phosphorylation) turn out when COC1CCCN(c2nc(-c3ccccn3)nn3cc(-c4ccn(C(C)C)n4)c(-c4ccccc4)c23)C1 (racemic) [Compound 27, rac 6-(1-Isopropyl-1H-pyrazol-3-yl)-4-(3-methoxypiperidin-1-yl)-5-phenyl-2-(pyridin-2-yl)pyrrolo[2,1-f][1,2,4]triazine] was run?
Its value is 0 (0% inhibition).

And the “% inh of Smad2/3 phosphorylation in Panc-1” value [1]?
The value was “D (D = 76-100% inhibition)”.

With COc1cccc(-c2cn3nc(-c4nccn4C)nc(N[C@@H]4CC[C@H](OC)C4)c3c2-c2ccccc2)c1Cl (racemic) [Compound 33, rac 6-(2-Chloro-3-methoxyphenyl)-N-((1R,3S)-3-methoxycyclopentyl)-2-(1-methyl-1H-imidazol-2-yl)-5-phenylpyrrolo[2,1-f][1,2,4]triazin-4-amine] as the compound, how does the “% inh of Erk1/2 phosphorylation in Panc-1” value (Erk1/2 phosphorylation) read?
The value was “D (85-100% inhibition)”.

What about the “% inh of Smad2/3 phosphorylation in Panc-1” value [1] of the same compound?
Its value is “D (D = 76-100% inhibition)”.

CO[C@H]1CC[C@@H](Nc2nc(-c3nccn3C)nn3cc(-c4ccn(C(C)C)n4)c(C(C)C)c23)C1 (racemic) [Compound 36, rac 5-Isopropyl-6-(1-isopropyl-1H-pyrazol-3-yl)-N-((1R,3S)-3-methoxycyclopentyl)-2-(1-methyl-1H-imidazol-2-yl)pyrrolo[2,1-f][1,2,4]triazin-4-amine] was tested. Which “% inh of Erk1/2 phosphorylation in Panc-1” value (Erk1/2 phosphorylation) did it give?
Its value is “C (50-84% inhibition)”.

And the “% inh of Smad2/3 phosphorylation in Panc-1” value [1]?
The value was “D (D = 76-100% inhibition)”.

COc1cccc(-c2cn3nc(-c4nccn4C)nc(N[C@@H]4CC[C@@H](OC)C4)c3c2-c2ccccc2)c1F (racemic) [Compound 43, rac 6-(2-Fluoro-3-methoxyphenyl)-N-((1R,3R)-3-methoxycyclopentyl)-2-(1-methyl-1H-imidazol-2-yl)-5-phenylpyrrolo[2,1-f][1,2,4]triazin-4-amine] was tested. Which “% inh of Erk1/2 phosphorylation in Panc-1” value (Erk1/2 phosphorylation) did it give?
Its value is “D (85-100% inhibition)”.

What about the “% inh of Smad2/3 phosphorylation in Panc-1” value [1] of the same compound?
The value was “D (D = 76-100% inhibition)”.

What does the source list for COc1cccc(-c2cn3nc(-c4nccn4C)nc(N[C@@H]4CC[C@@H](OC)C4)c3c2-c2ccccn2)c1F (racemic) [Compound 46, rac 6-(2-Fluoro-3-methoxyphenyl)-N-((1R,3R)-3-methoxycyclopentyl)-2-(1-methyl-1H-imidazol-2-yl)-5-(pyridin-2-yl)pyrrolo[2,1-f][1,2,4]triazin-4-amine]?
% inh of Erk1/2 phosphorylation in Panc-1 (Erk1/2 phosphorylation): 0 (0% inhibition); % inh of Smad2/3 phosphorylation in Panc-1 [1]: 0 (0 = 0% inhibition)

How did the “% inh of Erk1/2 phosphorylation in Panc-1” value (Erk1/2 phosphorylation) turn out when COc1cccc(-c2cn3nc(-c4nccn4C)nc(N[C@@H]4CC[C@H]4OC)c3c2-c2ccccc2)c1C (racemic) [Compound 272, rac 6-(3-Methoxy-2-methylphenyl)-N-((1R,2R)-2-methoxycyclobutyl)-2-(1-methyl-1H-imidazol-2-yl)-5-phenylpyrrolo[2,1-f][1,2,4]triazin-4-amine] was run?
The value was “D (85-100% inhibition)”.

What about the “% inh of Smad2/3 phosphorylation in Panc-1” value [1] of the same compound?
The value was “D (D = 76-100% inhibition)”.

COc1cccc(Nc2nc(-c3nccn3C)nn3cc(-c4ccn(C(C)C)n4)c(-c4ccccc4)c23)n1 [Compound 23, 6-(1-Isopropyl-1H-pyrazol-3-yl)-N-(6-methoxypyridin-2-yl)-2-(1-methyl-1H-imidazol-2-yl)-5-phenylpyrrolo[2,1-f][1,2,4]triazin-4-amine] was tested. Which “% inh of Erk1/2 phosphorylation in Panc-1” value (Erk1/2 phosphorylation) did it give?
The value was “D (85-100% inhibition)”.

What about the “% inh of Smad2/3 phosphorylation in Panc-1” value [1] of the same compound?
The value was 0 (0 = 0% inhibition).

Which results are given for COc1cccc(-c2cn3nc(-c4nccn4C)nc(O)c3c2-c2ccccc2)c1Cl [Compound 28, 6-(2-Chloro-3-methoxyphenyl)-2-(1-methyl-1H-imidazol-2-yl)-5-phenylpyrrolo[2,1-f][1,2,4]triazin-4-ol]?
% inh of Erk1/2 phosphorylation in Panc-1 (Erk1/2 phosphorylation): 0 (0% inhibition); % inh of Smad2/3 phosphorylation in Panc-1 [1]: 0 (0 = 0% inhibition)

Which results are given for COCCNc1nc(-c2nccn2C)nn2cc(-c3cccc(OC)c3Cl)c(-c3ccccc3)c12 [Compound 29, 6-(2-Chloro-3-methoxyphenyl)-N-(2-methoxyethyl)-2-(1-methyl-1H-imidazol-2-yl)-5-phenylpyrrolo[2,1-f][1,2,4]triazin-4-amine]?
% inh of Erk1/2 phosphorylation in Panc-1 (Erk1/2 phosphorylation): D (85-100% inhibition); % inh of Smad2/3 phosphorylation in Panc-1 [1]: D (D = 76-100% inhibition)

For COCCCNc1nc(-c2nccn2C)nn2cc(-c3cccc(OC)c3Cl)c(-c3ccccc3)c12 [Compound 30, 6-(2-Chloro-3-methoxyphenyl)-N-(3-methoxypropyl)-2-(1-methyl-1H-imidazol-2-yl)-5-phenylpyrrolo[2,1-f][1,2,4]triazin-4-amine], which “% inh of Erk1/2 phosphorylation in Panc-1” value (Erk1/2 phosphorylation) is on record?
The value was “D (85-100% inhibition)”.

And the “% inh of Smad2/3 phosphorylation in Panc-1” value [1]?
Its value is “D (D = 76-100% inhibition)”.

Which “% inh of Erk1/2 phosphorylation in Panc-1” value (Erk1/2 phosphorylation) does the source give for COc1cccc(-c2cn3nc(-c4nccn4C)nc(N[C@H]4C[C@@H](OC)C4)c3c2-c2ccccc2)c1Cl [Compound 31, 6-(2-Chloro-3-methoxyphenyl)-N-((1s,3s)-3-methoxycyclobutyl)-2-(1-methyl-1H-imidazol-2-yl)-5-phenylpyrrolo[2,1-f][1,2,4]triazin-4-amine] here?
Its value is “D (85-100% inhibition)”.

And the “% inh of Smad2/3 phosphorylation in Panc-1” value [1]?
Its value is “D (D = 76-100% inhibition)”.

With COc1cccc(-c2cn3nc(-c4nccn4C)nc(N[C@H]4C[C@H](OC)C4)c3c2-c2ccccc2)c1Cl [Compound 32, 6-(2-Chloro-3-methoxyphenyl)-N-((1r,3r)-3-methoxycyclobutyl)-2-(1-methyl-1H-imidazol-2-yl)-5-phenylpyrrolo[2,1-f][1,2,4]triazin-4-amine] as the compound, how does the “% inh of Erk1/2 phosphorylation in Panc-1” value (Erk1/2 phosphorylation) read?
The value was “D (85-100% inhibition)”.

And the “% inh of Smad2/3 phosphorylation in Panc-1” value [1]?
Its value is “D (D = 76-100% inhibition)”.

Which results are given for COCCNc1nc(-c2nccn2C)nn2cc(-c3ccn(C(C)C)n3)c(C(C)C)c12 [Compound 35, 5-Isopropyl-6-(1-isopropyl-1H-pyrazol-3-yl)-N-(2-methoxyethyl)-2-(1-methyl-1H-imidazol-2-yl)pyrrolo[2,1-f][1,2,4]triazin-4-amine]?
% inh of Erk1/2 phosphorylation in Panc-1 (Erk1/2 phosphorylation): 0 (0% inhibition); % inh of Smad2/3 phosphorylation in Panc-1 [1]: A (A = 1-25% inhibition)

How did the “% inh of Erk1/2 phosphorylation in Panc-1” value (Erk1/2 phosphorylation) turn out when COc1cccc(Nc2nc(-c3nccn3C)nn3ccc(C)c23)n1 [Compound 38, N-(6-Methoxypyridin-2-yl)-5-methyl-2-(1-methyl-1H-imidazol-2-yl)pyrrolo[2,1-f][1,2,4]triazin-4-amine] was run?
The value was 0 (0% inhibition).

What about the “% inh of Smad2/3 phosphorylation in Panc-1” value [1] of the same compound?
The value was 0 (0 = 0% inhibition).

Which results are given for COc1cccc(Nc2nc(-c3nccn3C)nn3ccc(-c4ccccc4)c23)n1 [Compound 40, N-(6-Methoxypyridin-2-yl)-2-(1-methyl-1H-imidazol-2-yl)-5-phenylpyrrolo[2,1-f][1,2,4]triazin-4-amine]?
% inh of Erk1/2 phosphorylation in Panc-1 (Erk1/2 phosphorylation): 0 (0% inhibition); % inh of Smad2/3 phosphorylation in Panc-1 [1]: B (B = 26-45% inhibition)

Cn1ccnc1-c1nc(OCCN2CCCC2)c2c(-c3ccccc3)ccn2n1 [Compound 41, 2-(1-Methyl-1H-imidazol-2-yl)-5-phenyl-4-(2-(pyrrolidin-1-yl)ethoxy)pyrrolo[2,1-f][1,2,4]triazine] was tested. Which “% inh of Erk1/2 phosphorylation in Panc-1” value (Erk1/2 phosphorylation) did it give?
The value was 0 (0% inhibition).

And the “% inh of Smad2/3 phosphorylation in Panc-1” value [1]?
The value was “A* (A* = 1-25% activation)”.

Which “% inh of Erk1/2 phosphorylation in Panc-1” value (Erk1/2 phosphorylation) does the source give for COc1cccc(-c2cn3nc(-c4nccn4C)nc(N[C@H]4C[C@H](OC)C4)c3c2-c2ccccc2)c1F [Compound 42, 6-(2-Fluoro-3-methoxyphenyl)-N-((1r,3r)-3-methoxycyclobutyl)-2-(1-methyl-1H-imidazol-2-yl)-5-phenylpyrrolo[2,1-f][1,2,4]triazin-4-amine] here?
Its value is “D (85-100% inhibition)”.

And the “% inh of Smad2/3 phosphorylation in Panc-1” value [1]?
The value was 0 (0 = 0% inhibition).

With COCCO[C@H]1C[C@H](Nc2nc(-c3nccn3C)nn3cc(-c4cccc(OC)c4F)c(-c4ccccc4)c23)C1 [Compound 44, 6-(2-Fluoro-3-methoxyphenyl)-N-((1r,3r)-3-(2-methoxyethoxy)cyclobutyl)-2-(1-methyl-1H-imidazol-2-yl)-5-phenylpyrrolo[2,1-f][1,2,4]triazin-4-amine] as the compound, how does the “% inh of Erk1/2 phosphorylation in Panc-1” value (Erk1/2 phosphorylation) read?
The value was “B (26-49% inhibition)”.

What about the “% inh of Smad2/3 phosphorylation in Panc-1” value [1] of the same compound?
Its value is “D (D = 76-100% inhibition)”.

With COc1cccc(-c2cn3nc(-c4nccn4C)nc(N[C@H]4C[C@H](OC)C4)c3c2-c2ccccn2)c1F [Compound 45, 6-(2-Fluoro-3-methoxyphenyl)-N-((1r,3r)-3-methoxycyclobutyl)-2-(1-methyl-1H-imidazol-2-yl)-5-(pyridin-2-yl)pyrrolo[2,1-f][1,2,4]triazin-4-amine] as the compound, how does the “% inh of Erk1/2 phosphorylation in Panc-1” value (Erk1/2 phosphorylation) read?
The value was 0 (0% inhibition).

And the “% inh of Smad2/3 phosphorylation in Panc-1” value [1]?
Its value is 0 (0 = 0% inhibition).
